# Tested on: elderly Sprague-Dawley rats with paw incision surgery
# Conditions: males and females; morphine 1 or 5 mg/kg s.c. 24 h after surgery
smiles,measurement,value
"CN1CC[C@]23c4c5ccc(O)c4O[C@H]2[C@@H](O)C=C[C@H]3[C@H]1C5.O=S(=O)(O)O [morphine, morphine sulfate]",paw withdrawal thresholds of morphine-injected animals compared with saline-injected counterparts,higher than that of their saline-injected counterparts at up to 1.5 hours post-injection
